Test results taken from US20230172959A1, “USE OF NMN FOR THE PREVENTION AND/OR TREATMENT OF A BACK PAIN AND CORRESPONDING COMPOSITIONS” (NUVAMID SA, priority 2020, published 2023).
Values joined by “and” are separate entries in the source; they are usually repeats but may differ in a detail not shown here. Equal entries are not always repeated.

Key:
chronic lumbalgia [1] = assay: Visual Analogue Scale (VAS) of lumbalgia pain, 10-day satisfaction study in 12 volunteers; type: in vivo, human; conditions: for VAS lumbalgia pain, median / VAS lumbalgia pain, mean: 5% NMN oil-in-water emulsion topical twice a day, scale 0-100; for VAS lumbalgia pain, median: baseline D 0 72.5; for VAS lumbalgia pain, mean: baseline D 0 73.4
Protocol: A satisfaction study was carried out on a group of 12 volunteers, aged 42±8 years, consisting of seven female and five male subjects. The main objective of this study was to evaluate the level of satisfaction of subjects with regard to the evolution of their lumbalgia (low back pain) during the morning and/or evening application of a composition according to the invention containing 5% by weight of NMN. The duration of the existence of pains in the lumbar spine region was on average 4±3 years (ie […]) while the current pains of the subjects dated back to 2±3 years pre-baseline (before inclusion). These pains occurred mostly spontaneously (58.3%). More precisely, seven participants presented with a lumbalgia of spontaneous origin, one participant presented with a lumbalgia resulting from a physical or sporting activity, two participants attributed their lumbalgia to the practice of gardening, and two other participants attributed their lumbalgia to another of these causes. The participants therefore all had chronic lumbalgia. A composition in the form of an oil-in-water emulsion comprising 5% NMN was formulated as follows, the ingredients being designated by their INCI (International Nomenclature of Cosmetic Ingredients) name: Aqua, Paraffinum liquidum, Cetyl alcohol, Glyceryl stearate, Benzyl PCA, Ceteareth-20, Ceteareth-12, Cetyl Palmitate, Cocoglycerides, Cetearyl alcohol, Sodium Hydroxide, NMN. The composition was prepared according to any method well known to the person skilled in the art. The study took place over 10 days. At baseline, ie upon inclusion (DO), the selected subjects provide their demographic characteristics (age, weight, height), indicate the period of persistence and intensity of the pain on a Visual Analogue Scale, and complete the WOMAC and Lequesne questionnaires. These different scales were used in order to assess by different means the effect of NMN on lumbalgia. Over the subsequent 9 day period, each evening the subjects fill in the Visual Analogue Scale of pain, ensuring any discomfort or problems arising or the taking of analgesics are reported therein. On day 10, the volunteers complete the WOMAC questionnaire, the Lequesne questionnaire, the Visual Analogue Scale (VAS) of pain, indicating the perceived improvement in lumbalgia pain relief as measured by the PGI-I index (abbreviation for “Patient Global Improvement Impression”), satisfaction with regard to evolution of the lumbalgia on a Likert scale as well as the ease of application and penetration of the composition, assessment of the texture and odour of the composition, likelihood of re-use thereof in the event of recurrence of a similar pain, and recommendation of use to third parties presenting with pain of similar nature. The PGI-I index is an index that serves as means for evaluating the response to a treatment. The Likert scale is a psychometric tool used for measuring an attitude in individuals, which consists of one or more statements for which the individual responding expresses their degree of agreement or disagreement.

chronic lumbalgia [2] = assay: WOMAC questionnaire, 10-day satisfaction study in 12 volunteers; type: in vivo, human
Protocol: More precisely, the WOMAC score is calculated on the basis of the responses to the questions below: The total score corresponds to the average of the 24 items. The same is true for the score for each area of assessment. A satisfaction study was carried out on a group of 12 volunteers, aged 42±8 years, consisting of seven female and five male subjects. The main objective of this study was to evaluate the level of satisfaction of subjects with regard to the evolution of their lumbalgia (low back pain) during the morning and/or evening application of a composition according to the invention containing 5% by weight of NMN. A composition in the form of an oil-in-water emulsion comprising 5% NMN was formulated as follows, the ingredients being designated by their INCI (International Nomenclature of Cosmetic Ingredients) name: Aqua, Paraffinum liquidum, Cetyl alcohol, Glyceryl stearate, Benzyl PCA, Ceteareth-20, Ceteareth-12, Cetyl Palmitate, Cocoglycerides, Cetearyl alcohol, Sodium Hydroxide, NMN. The composition was prepared according to any method well known to the person skilled in the art. The study took place over 10 days. At baseline, ie upon inclusion (DO), the selected subjects provide their demographic characteristics (age, weight, height), indicate the period of persistence and intensity of the pain on a Visual Analogue Scale, and complete the WOMAC and Lequesne questionnaires. These different scales were used in order to assess by different means the effect of NMN on lumbalgia. On day 10, the volunteers complete the WOMAC questionnaire, the Lequesne questionnaire, the Visual Analogue Scale (VAS) of pain, indicating the perceived improvement in lumbalgia pain relief as measured by the PGI-I index (abbreviation for “Patient Global Improvement Impression”), satisfaction with regard to evolution of the lumbalgia on a Likert scale as well as the ease of application and penetration of the composition, assessment of the texture and odour of the composition, likelihood of re-use thereof in the event of recurrence of a similar pain, and recommendation of use to third parties presenting with pain of similar nature. The PGI-I index is an index that serves as means for evaluating the response to a treatment. The Likert scale is a psychometric tool used for measuring an attitude in individuals, which consists of one or more statements for which the individual responding expresses their degree of agreement or disagreement.

[3] = after 10 days vs baseline, p<0.001

## NC(=O)c1ccc[n+]([C@@H]2O[C@H](COP(=O)([O-])O)[C@@H](O)[C@H]2O)c1 (stereo in doubt) [NMN, nicotinamide mononucleotide]
Chronic lumbalgia [1]; 10 days of application vs baseline, 5% NMN emulsion topical, p<0.0001
  reduction of lumbalgia pain measured by the VAS: 58.7±29.2% and 58.7%
Chronic lumbalgia [1]; D 1
  VAS lumbalgia pain, median: 60.5
  VAS lumbalgia pain, mean: 61.1
Chronic lumbalgia [1]; D 2
  VAS lumbalgia pain, median: 59.0
  VAS lumbalgia pain, mean: 56.8
Chronic lumbalgia [1]; D 3
  VAS lumbalgia pain, median: 57.5
  VAS lumbalgia pain, mean: 52.3
Chronic lumbalgia [1]; D 4
  VAS lumbalgia pain, median: 51.0
  VAS lumbalgia pain, mean: 49.4
Chronic lumbalgia [1]; D 5
  VAS lumbalgia pain, median: 45.5
  VAS lumbalgia pain, mean: 45.7
Chronic lumbalgia [1]; D 6
  VAS lumbalgia pain, median: 42.5
  VAS lumbalgia pain, mean: 42.4
Chronic lumbalgia [1]; D 7
  VAS lumbalgia pain, median: 48.0
  VAS lumbalgia pain, mean: 45.2
Chronic lumbalgia [1]; D 8
  VAS lumbalgia pain, median: 38.0
  VAS lumbalgia pain, mean: 35.8
Chronic lumbalgia [1]; D 9
  VAS lumbalgia pain, median: 26.0
  VAS lumbalgia pain, mean: 28.3
Chronic lumbalgia [1]; D 10
  VAS lumbalgia pain, median: 30.0
  VAS lumbalgia pain, mean: 30.8±22.6 and 30.8
Chronic lumbalgia [1]; VAS, 5% NMN emulsion topical twice a day
  mean time period to obtain an initial 50% reduction in pain relative to baseline: 5.0 ± 2.9 days
Chronic lumbalgia [2]; after 10 days of application, baseline 57.1±15.5, 5% NMN emulsion topical
  WOMAC "function" criterion: 30.8±21.8
Chronic lumbalgia [2]; after 10 days of application, baseline 58.3±14.8, 5% NMN emulsion topical
  total WOMAC score: 30.9±21.7
Chronic lumbalgia [2]; after 10 days of application, baseline 59.9±13.1, 5% NMN emulsion topical
  WOMAC "pain" criterion: 31.0±21.2
Chronic lumbalgia [2]; after 10 days of application, baseline 64.2±21.0, 5% NMN emulsion topical
  WOMAC "stiffness" criterion: 31.6±25.0
Chronic lumbalgia [2]; [3]
  decrease of total WOMAC score: 48.6±33.7%
  reduction of WOMAC "pain" criterion: 50.1±31.3%
  reduction of WOMAC "stiffness" criterion: 52.5±32.9%
Chronic lumbalgia [2]; after 10 days vs baseline, p<0.01
  reduction of WOMAC "function" criterion: 47.5±35.6%
